Literature values as cited in patent US20100284993A1, “Enhancing the Efficacy of Anti-Infective Therapeutics” (priority 2007, published 2010).
Blank lines part the entries; values can stand above or below the molecule they belong to.

How the values were obtained:
[1] = in vivo
[2] = biological target: peptidyl prolyl isomerases of the protozoan parasite Trypanosoma cruzi (Trypanosoma cruzi, UniProt Q09734)
[3] = design: unit not given here; conditions: in vivo

Sequence of peptidyl prolyl isomerases of the protozoan parasite Trypanosoma cruzi (Q09734 30-196): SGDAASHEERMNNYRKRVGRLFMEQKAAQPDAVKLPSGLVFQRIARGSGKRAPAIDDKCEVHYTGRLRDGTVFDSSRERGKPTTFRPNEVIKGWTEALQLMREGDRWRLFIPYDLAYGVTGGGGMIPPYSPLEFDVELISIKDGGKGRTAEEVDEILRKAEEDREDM

- distribution into protected cellular compartments in the blood [1]: 72-98%
Compound: C=CC[C@@H]1/C=C(\C)C[C@H](C)C[C@H](OC)[C@H]2O[C@@](O)(C(=O)C(=O)N3CCCC[C@H]3C(=O)O[C@H](/C(C)=C/[C@@H]3CC[C@@H](O)[C@H](OC)C3)[C@H](C)[C@@H](O)CC1=O)[C@H](C)C[C@@H]2OC [FK506]

Compound: CC[C@@H]1/C=C(\C)[C@@H](O)[C@H](C)C[C@H](OC)[C@H]2O[C@@](O)(C(=O)C(=O)N3CCCC[C@H]3C(=O)O[C@H](/C(C)=C/[C@@H]3CC[C@@H](O)[C@H](OC)C3)[C@H](C)[C@@H](O)CC1=O)[C@H](C)C[C@@H]2OC [L-685,818]
- binding preference for T. cruzi peptidyl prolyl isomerases over human FKBP [2]: preferentially binds

- half life [3]: four
Compound: C[C@@H](O)[C@H]1C(=O)N2C(C(=O)O)=C(S[C@@H]3CN[C@H](C(=O)Nc4cccc(C(=O)O)c4)C3)[C@H](C)[C@H]12 [ertapenem]
- effectiveness against Pseudomonas aeruginosa (Pseudomonas aeruginosa): not effective

- elimination half life [3]: one
Compound: C[C@@H](O)[C@H]1C(=O)N2C(C(=O)O)=C(S[C@@H]3CN[C@H](C(=O)N(C)C)C3)[C@H](C)[C@H]12 [meropenem]
